Data taken from US10479795B2 (Incyte Corporation, priority 2016, dated 2019).
Read-outs that look alike come from different tables or passages of the source.

How the values were obtained:
[1] = target: PI3Kγ (p110γ) Recombinant Human Protein (Homo sapiens (Human), UniProt P48736); experiment: PI3K-γ Scintillation Proximity Assay; format: biochemical
Procedure, shortened: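 Radiometric SPA readout: […] bound to WGA beads after overnight shaking, IC50 derived from % activity of DMSO control. Reaction used human p110γ, 2 μM ATP, 20 μM PIP2, pH 6.7 MOPS buffer with MgCl2, DTT, CHAPS, 2% DMSO, room temperature.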

[2] = target: PI3Kδ (p110δ/p85α) Recombinant Human Protein (Homo sapiens (Human), UniProt O00329); experiment: PI3Kδ Scintillation Proximity Assay; format: biochemical
Sequence of PI3Kδ (p110δ/p85α) Recombinant Human Protein (O00329 whole entry): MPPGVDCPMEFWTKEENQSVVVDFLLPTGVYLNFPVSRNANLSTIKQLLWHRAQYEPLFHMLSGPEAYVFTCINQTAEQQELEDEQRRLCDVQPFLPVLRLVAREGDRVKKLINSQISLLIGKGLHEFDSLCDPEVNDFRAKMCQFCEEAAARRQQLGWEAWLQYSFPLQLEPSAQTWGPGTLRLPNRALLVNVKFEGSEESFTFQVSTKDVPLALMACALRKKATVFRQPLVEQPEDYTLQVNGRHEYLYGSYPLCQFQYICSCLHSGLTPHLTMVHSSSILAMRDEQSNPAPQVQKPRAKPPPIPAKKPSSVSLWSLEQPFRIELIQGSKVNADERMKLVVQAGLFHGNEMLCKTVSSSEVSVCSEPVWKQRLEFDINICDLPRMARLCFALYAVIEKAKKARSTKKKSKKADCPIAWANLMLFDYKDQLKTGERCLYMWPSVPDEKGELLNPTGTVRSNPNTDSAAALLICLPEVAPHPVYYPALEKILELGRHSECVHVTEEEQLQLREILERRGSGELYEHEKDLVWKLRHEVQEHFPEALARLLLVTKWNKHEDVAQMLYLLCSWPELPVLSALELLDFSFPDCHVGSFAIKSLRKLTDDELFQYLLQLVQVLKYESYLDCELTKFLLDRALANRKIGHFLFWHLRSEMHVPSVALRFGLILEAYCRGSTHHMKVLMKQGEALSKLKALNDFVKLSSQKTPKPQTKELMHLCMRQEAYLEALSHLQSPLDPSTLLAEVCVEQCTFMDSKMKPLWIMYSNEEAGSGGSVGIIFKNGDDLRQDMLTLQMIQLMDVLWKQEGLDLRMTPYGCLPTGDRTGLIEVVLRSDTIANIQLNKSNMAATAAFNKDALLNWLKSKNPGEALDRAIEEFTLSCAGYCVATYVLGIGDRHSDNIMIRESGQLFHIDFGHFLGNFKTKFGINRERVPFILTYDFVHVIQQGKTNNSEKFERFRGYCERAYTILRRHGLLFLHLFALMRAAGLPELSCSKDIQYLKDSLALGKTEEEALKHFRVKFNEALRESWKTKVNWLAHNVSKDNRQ
Sequence of PI3Kδ (p110δ/p85α) Recombinant Human Protein (P27986 whole entry partner): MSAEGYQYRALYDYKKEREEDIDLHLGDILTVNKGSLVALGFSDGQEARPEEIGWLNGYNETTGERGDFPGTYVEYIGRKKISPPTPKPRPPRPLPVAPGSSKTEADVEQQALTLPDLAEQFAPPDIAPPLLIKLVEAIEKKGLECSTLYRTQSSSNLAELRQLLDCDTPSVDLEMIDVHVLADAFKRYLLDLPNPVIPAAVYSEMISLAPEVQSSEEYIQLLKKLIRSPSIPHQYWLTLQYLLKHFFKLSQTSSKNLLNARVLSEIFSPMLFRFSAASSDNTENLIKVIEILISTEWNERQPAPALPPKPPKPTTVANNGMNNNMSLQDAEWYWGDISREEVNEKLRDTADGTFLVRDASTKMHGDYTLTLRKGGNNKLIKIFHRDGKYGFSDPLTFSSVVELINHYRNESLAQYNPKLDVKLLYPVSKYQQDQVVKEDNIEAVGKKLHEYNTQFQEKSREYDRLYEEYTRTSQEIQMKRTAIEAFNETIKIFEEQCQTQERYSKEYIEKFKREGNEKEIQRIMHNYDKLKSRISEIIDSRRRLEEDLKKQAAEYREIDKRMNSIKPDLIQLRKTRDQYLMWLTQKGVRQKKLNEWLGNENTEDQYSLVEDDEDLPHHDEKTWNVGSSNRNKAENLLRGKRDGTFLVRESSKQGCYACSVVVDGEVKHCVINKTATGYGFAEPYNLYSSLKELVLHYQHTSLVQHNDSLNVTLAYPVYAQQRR
From the text: Example C. PI3Kδ Scintillation Proximity Assay
[γ-^33P]ATP (10 mCi/mL) and Wheat Germ Agglutinin (WGA) YSi SPA Scintillation Beads was purchased from Perkin-Elmer (Waltham, Mass.). Lipid kinase substrate, D-myo-Phosphatidylinositol 4,5-bisphosphate (PtdIns(4,5)P2)D (+)-sn-1,2-di-O-octanoylglyceryl, 3-O-phospho linked (PIP2), CAS 204858-53-7, was purchased from Echelon Biosciences (Salt Lake City, Utah). PI3Kδ (p110δ/p85α) Recombinant Human Protein was purchased from Eurofins (St Charles, Mo.). ATP, MgCl2, DTT, EDTA, MOPS and CHAPS were purchased from Sigma-Aldrich (St. Louis, Mo.).
The kinase reaction was conducted in polystyrene 384-well Greiner Bio-one white plate from Thermo Fisher Scientific in a final volume of 25 μL. Inhibitors were first diluted serially in DMSO and added to the plate wells before the addition of other reaction components. The final concentration of DMSO in the assay was 2%. The PI3Kδ assay was carried out at room temperature in 20 mM MOPS, pH 6.7, 10 mM MgCl2, 5 mM DTT and CHAPS 0.03%. Reactions were initiated by the addition of ATP, the final reaction mixture consisted of 20 μM PIP2, 2 μM ATP, 0.5 μCi [γ-^33P] ATP, 3.4 nM PI3Kδ. Reactions were incubated for 120 min and terminated by the addition of 40 μL SPA beads suspended in quench buffer: 163 mM potassium phosphate pH 7.8, 20% glycerol, 25 mM EDTA. The final concentration of SPA beads is 1.0 mg/mL. After the plate sealing, plates were shaken overnight at room temperature and centrifuged at 1500 rpm for 10 min, the radioactivity of the product was determined by scintillation counting on Topcount (Perkin-Elmer). IC50 determination was performed by fitting the curve of percent of the solvent control activity versus the log of the inhibitor concentration using the GraphPad Prism 6.0 software.

Sequence of PI3Kγ (p110γ) Recombinant Human Protein (P48736 whole entry): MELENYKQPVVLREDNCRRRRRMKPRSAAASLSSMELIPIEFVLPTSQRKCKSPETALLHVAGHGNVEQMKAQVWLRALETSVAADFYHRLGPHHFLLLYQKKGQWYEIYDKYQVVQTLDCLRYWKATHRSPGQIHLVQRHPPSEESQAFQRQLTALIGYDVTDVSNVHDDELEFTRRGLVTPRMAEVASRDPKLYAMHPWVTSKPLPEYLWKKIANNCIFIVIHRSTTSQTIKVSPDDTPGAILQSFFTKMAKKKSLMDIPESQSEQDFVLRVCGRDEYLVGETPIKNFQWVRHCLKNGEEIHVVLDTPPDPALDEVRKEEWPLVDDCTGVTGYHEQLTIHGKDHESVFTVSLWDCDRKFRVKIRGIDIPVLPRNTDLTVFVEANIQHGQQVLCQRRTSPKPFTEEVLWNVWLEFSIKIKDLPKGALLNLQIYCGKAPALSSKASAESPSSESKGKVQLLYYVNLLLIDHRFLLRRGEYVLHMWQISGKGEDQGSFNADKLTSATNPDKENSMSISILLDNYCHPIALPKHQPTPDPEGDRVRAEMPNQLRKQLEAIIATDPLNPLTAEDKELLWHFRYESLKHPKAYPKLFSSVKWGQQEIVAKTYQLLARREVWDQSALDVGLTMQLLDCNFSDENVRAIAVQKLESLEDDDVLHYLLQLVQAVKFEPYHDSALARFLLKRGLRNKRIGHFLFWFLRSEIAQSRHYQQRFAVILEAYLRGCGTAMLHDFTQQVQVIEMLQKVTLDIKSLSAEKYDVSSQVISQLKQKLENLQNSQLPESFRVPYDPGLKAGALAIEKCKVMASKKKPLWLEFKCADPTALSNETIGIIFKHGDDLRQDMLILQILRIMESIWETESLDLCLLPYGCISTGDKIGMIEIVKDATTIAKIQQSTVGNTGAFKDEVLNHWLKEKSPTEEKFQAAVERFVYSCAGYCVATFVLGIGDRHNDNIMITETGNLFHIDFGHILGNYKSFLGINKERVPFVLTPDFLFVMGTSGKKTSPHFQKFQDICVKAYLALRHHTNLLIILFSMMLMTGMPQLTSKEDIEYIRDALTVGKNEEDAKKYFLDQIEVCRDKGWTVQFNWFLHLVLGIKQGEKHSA

Structure (SMILES) | IC50 ([1]; read-out: PI3Kγ IC50) | IC50 [2] | IC50 [1]
Cc1ccc(S(=O)(=O)N2CC[C@@H](C#N)C2)cc1-c1cnc2c(N)ncnn12 [Example 150, (R)-1-((3-(4-aminoimidazo[2,1-f][1,2,4]triazin-7-yl)-4-methylphenyl)sulfonyl)pyrrolidine-3-carbonitrile] | < 100 nM | 500 to 2000 nM | –
CO[C@@H]1CN(S(=O)(=O)c2ccc(C)c(-c3cnc4c(N)ncnn34)c2)C[C@H]1F [Example 151, 7-(5-(((3R,4R)-3-fluoro-4-methoxypyrrolidin-1-yl)sulfonyl)-2-methylphenyl)imidazo[2,1-f][1,2,4]triazin-4-amine] | < 100 nM | 100 to 500 nM | –
Cc1ccc(S(=O)(=O)N2CCC[C@@H]2CO)cc1-c1cnc2c(N)ncnn12 [Example 152] | < 100 nM | 500 to 2000 nM | –
Cc1ccc(S(=O)(=O)N2CC(C3COC3)C2)cc1-c1cnc2c(N)ncnn12 [Example 153, 7-(2-methyl-5-((3-(oxetan-3-yl)azetidin-1-yl)sulfonyl)phenyl)imidazo[2,1-f][1,2,4]triazin-4-amine] | < 100 nM | 500 to 2000 nM | –
Cc1ccc(S(=O)(=O)N(C)CCC#N)cc1-c1cnc2c(N)ncnn12 [Example 154, 3-(4-aminoimidazo[2,1-f][1,2,4]triazin-7-yl)-N-(2-cyanoethyl)-N,4-dimethylbenzenesulfonamide] | < 100 nM | > 2000 nM | –
Cc1ccc(S(=O)(=O)N2CC(C)OCC2(C)C)cc1-c1cnc2c(N)ncnn12 (stereo not drawn) [Example 158, 7-(2-methyl-5-((2,5,5-trimethylmorpholino)sulfonyl)phenyl)imidazo[2,1-f][1,2,4]triazin-4-amine] | < 100 nM | 500 to 2000 nM | –
Cc1ccc(S(=O)(=O)N(C)C2CC(O)C2)cc1-c1cnc2c(N)ncnn12 [Example 159, 3-(4-aminoimidazo[2,1-f][1,2,4]triazin-7-yl)-N-((1R,3R)-3-hydroxycyclobutyl)-N,4-dimethylbenzenesulfonamide] | 100 to 500 nM | > 2000 nM | –
Cc1ccc(S(=O)(=O)N(C)CC2(CO)CC2)cc1-c1cnc2c(N)ncnn12 [Example 160, 3-(4-aminoimidazo[2,1-f][1,2,4]triazin-7-yl)-N-((1-(hydroxymethyl)cyclopropyl)methyl)-N,4-dimethylbenzenesulfonamide] | 100 to 500 nM | 500 to 2000 nM | –
Cc1ccc(S(=O)(=O)N2CCS(=O)(=O)CC2)cc1-c1cnc2c(N)ncnn12 [Example 161, 4-((3-(4-aminoimidazo[2,1-f][1,2,4]triazin-7-yl)-4-methylphenyl)sulfonyl)thiomorpholine 1,1-dioxide] | < 100 nM | 100 to 500 nM | –
Cc1ccc(S(=O)(=O)N2CCS(=O)(=O)CC2C)cc1-c1cnc2c(N)ncnn12 (stereo not drawn) [Example 162, 4-((3-(4-aminoimidazo[2,1-f][1,2,4]triazin-7-yl)-4-methylphenyl)sulfonyl)-3-methylthiomorpholine 1,1-dioxide] | < 100 nM | 500 to 2000 nM | –
Cc1ccc(S(=O)(=O)N(C)CC(F)(F)F)cc1-c1cnc2c(N)ncnn12 [Example 163, 3-(4-aminoimidazo[2,1-f][1,2,4]triazin-7-yl)-N,4-dimethyl-N-(2,2,2-trifluoroethyl)benzenesulfonamide] | < 100 nM | 500 to 2000 nM | –
CCCN(CC1CC1)S(=O)(=O)c1ccc(C)c(-c2cnc3c(N)ncnn23)c1 [Example 164, 3-(4-aminoimidazo[2,1-f][1,2,4]triazin-7-yl)-N-(cyclopropylmethyl)-4-methyl-N-propylbenzenesulfonamide] | < 100 nM | 500 to 2000 nM | –
Cc1ccc(S(=O)(=O)N2C[C@H](O)[C@@H](N3CCN(C)CC3)C2)cc1-c1cnc2c(N)ncnn12 [Example 167, (3S,4S)-1-((3-(4-aminoimidazo[2,1-f][1,2,4]triazin-7-yl)-4-methylphenyl)sulfonyl)-4-(4-methylpiperazin-1-yl)pyrrolidin-3-ol] | 100 to 500 nM | > 2000 nM | –
Cc1ccc(S(=O)(=O)N2CCCC2c2c(C)noc2C)cc1-c1cnc2c(N)ncnn12 (stereo not drawn) [Example 168, 7-(5-((2-(3,5-dimethylisoxazol-4-yl)pyrrolidin-1-yl)sulfonyl)-2-methylphenyl)imidazo[2,1-f][1,2,4]triazin-4-amine] | < 100 nM | 500 to 2000 nM | –
Cc1ccc(S(=O)(=O)N2C3CCC2CC(N2CCOCC2)C3)cc1-c1cnc2c(N)ncnn12 (stereo not drawn) [Example 169, 7-(2-methyl-5-((3-morpholino-8-azabicyclo[3.2.1]octan-8-yl)sulfonyl)phenyl)imidazo[2,1-f][1,2,4]triazin-4-amine] | 100 to 500 nM | > 2000 nM | –
Cc1ccc(S(=O)(=O)N2[C@@H]3CC[C@H]2CN(C)C3)cc1-c1cnc2c(N)ncnn12 [Example 170, 7-(2-methyl-5-(((1R,5S)-3-methyl-3,8-diazabicyclo[3.2.1]octan-8-yl)sulfonyl)phenyl)imidazo[2,1-f][1,2,4]triazin-4-amine] | < 100 nM | 500 to 2000 nM | –
Cc1ccc(S(=O)(=O)N2CCN(C3CC3)C(=O)C2)cc1-c1cnc2c(N)ncnn12 [Example 171, 4-((3-(4-aminoimidazo[2,1-f][1,2,4]triazin-7-yl)-4-methylphenyl)sulfonyl)-1-cyclopropylpiperazin-2-one] | 100 to 500 nM | 500 to 2000 nM | –
Cc1ccc(S(=O)(=O)N2CC(=O)N3CCCC[C@@H]3C2)cc1-c1cnc2c(N)ncnn12 [Example 172, (R)-2-((3-(4-aminoimidazo[2,1-f][1,2,4]triazin-7-yl)-4-methylphenyl)sulfonyl)octahydro-4H-pyrido[1,2-a]pyrazin-4-one] | 100 to 500 nM | 500 to 2000 nM | –
Cc1ccc(S(=O)(=O)N(CCC#N)C2CCCCC2)cc1-c1cnc2c(N)ncnn12 [Example 173, 3-(4-aminoimidazo[2,1-f][1,2,4]triazin-7-yl)-N-(2-cyanoethyl)-N-cyclohexyl-4-methylbenzenesulfonamide] | 100 to 500 nM | > 2000 nM | –
Cc1ccc(S(=O)(=O)N2CCN3C(=O)OC[C@H]3C2)cc1-c1cnc2c(N)ncnn12 [Example 174, (R)-7-((3-(4-aminoimidazo[2,1-f][1,2,4]triazin-7-yl)-4-methylphenyl)sulfonyl)hexahydro-3H-oxazolo[3,4-a]pyrazin-3-one] | 100 to 500 nM | > 2000 nM | –
Cc1ccc(S(=O)(=O)N(C)CC2(C)COC2)cc1-c1cnc2c(N)ncnn12 [Example 176, 3-(4-aminoimidazo[2,1-f][1,2,4]triazin-7-yl)-N,4-dimethyl-N-((3-methyloxetan-3-yl)methyl)benzenesulfonamide] | – | > 2000 nM | 100 to 500 nM
COCC1(N(C)S(=O)(=O)c2ccc(C)c(-c3cnc4c(N)ncnn34)c2)CC1 [Example 177, 3-(4-aminoimidazo[2,1-f][1,2,4]triazin-7-yl)-N-(1-(methoxymethyl)cyclopropyl)-N,4-dimethylbenzenesulfonamide] | < 100 nM | 500 to 2000 nM | –
Cc1ccc(S(=O)(=O)N(C)CC2(CO)CCC2)cc1-c1cnc2c(N)ncnn12 [Example 178, 3-(4-aminoimidazo[2,1-f][1,2,4]triazin-7-yl)-N-((1-(hydroxymethyl)cyclobutyl)methyl)-N,4-dimethylbenzenesulfonamide] | < 100 nM | 500 to 2000 nM | –
CCN(CC1CCCO1)S(=O)(=O)c1ccc(C)c(-c2cnc3c(N)ncnn23)c1 (stereo not drawn) [Example 179, 3-(4-aminoimidazo[2,1-f][1,2,4]triazin-7-yl)-N-ethyl-4-methyl-N-((tetrahydrofuran-2-yl)methyl)benzenesulfonamide] | < 100 nM | 500 to 2000 nM | –
